# Test system: spontaneous contractile activity of MDSC/SIS preparations
# Test: Pharmacological evaluation on spontaneous contractile activity of MDSC/SIS
# Assay type: cell-based
# Settings: for effect on spontaneous contractile activity in MDSC/SIS specimens: added to bath: carbachol 10 and 20 μM, KCI 7%, 1 M, EGTA 200 μM in Ca++-free Krebs
# Experimental: Twenty five preparations of MDSC/SIS and twenty five control preparations of SIS only were incubated at 37° C. for 1, 4, or 8 weeks. The specimens were then mounted in a thermally controlled bath of 5 ml at 37° C. in Krebs solution (mmol/L: NaCl, 113; KCI, 4.7; CaCl2,1.25; MgSO4,1.2; NaHCO3, 25; KH2PO4, 1.2 and glucose, 11.5) with a mixture of 95% 02 and 5% C02. The frequency and amplitude of isometric contractions were measured with strain gauge transducers coupled with a TBM4 strain gauge amplifier and recorded on a computer using a data acquisition program (Windaq, DATAQ Instruments Inc. Akron, Ohio). After 60 minutes of equilibration, electrical field stimuli (10 Hz, 150 volt, 0.5 ms, 60 sec) were applied in the bath. Pharmacological evaluations were performed with succinylcholine (S-Chol), (4, 10 and 20 μM); carbachol (10 and 20 μM); KCI, (7%, 1 M); Ca^++-free Krebs solution with EGTA (200 μM); or distilled water, were each added to the bath sequentially at 30 minute intervals. The frequency, amplitude, and pattern of contraction of the specimens were compared among the different groups.
smiles,measurement,setting,value
O=C(O)CN(CCOCCOCCN(CC(=O)O)CC(=O)O)CC(=O)O [EGTA],effect on spontaneous contractile activity in MDSC/SIS specimens,,blocked
[Cl-].[K+] [KCI],effect on spontaneous contractile activity in MDSC/SIS specimens,,did not alter
C[N+](C)(C)CCOC(N)=O [carbachol],effect on spontaneous contractile activity in MDSC/SIS specimens,,did not alter
C[N+](C)(C)CCOC(=O)CCC(=O)OCC[N+](C)(C)C [succinylcholine],"effect on frequency, amplitude or pattern of spontaneous activity","4 μM, any of the preparations",did not alter
same,frequency and amplitude of spontaneous contractile activity decreased,"4-week MDSC/SIS, 10 μM",2 of 5
same,frequency and amplitude of spontaneous contractile activity decreased,"4-week MDSC/SIS, 20 μM",5 of 5
same,spontaneous contractile activity blocked,"4-week MDSC/SIS, 20 μM",2 of 5
same,frequency and amplitude of spontaneous contractile activity decreased,"8-week MDSC/SIS, 10 μM",8 of 8
same,effect on frequency and amplitude of spontaneous contractile activity,"8-week MDSC/SIS, 20 μM",decreased
same,spontaneous contractile activity blocked,"8-week MDSC/SIS, 20 μM",5 of 8
same,reversibility of suppressant effects,after washout of the drug,reversible
